Consider 1 compound from PMC8453936, “Development and in vitro Profiling of Dual FXR/LTA4H Modulators” (Chemmedchem, 2021).

This assay deals with T1, full-length human FXR (Homo sapiens, UniProt Q96RI1).
T1 construct: coding for the full‐length human nuclear receptors FXR and RXRα; expressed in transfected cells; host or cells: HeLa
T1 sequence (Q96RI1 1-486): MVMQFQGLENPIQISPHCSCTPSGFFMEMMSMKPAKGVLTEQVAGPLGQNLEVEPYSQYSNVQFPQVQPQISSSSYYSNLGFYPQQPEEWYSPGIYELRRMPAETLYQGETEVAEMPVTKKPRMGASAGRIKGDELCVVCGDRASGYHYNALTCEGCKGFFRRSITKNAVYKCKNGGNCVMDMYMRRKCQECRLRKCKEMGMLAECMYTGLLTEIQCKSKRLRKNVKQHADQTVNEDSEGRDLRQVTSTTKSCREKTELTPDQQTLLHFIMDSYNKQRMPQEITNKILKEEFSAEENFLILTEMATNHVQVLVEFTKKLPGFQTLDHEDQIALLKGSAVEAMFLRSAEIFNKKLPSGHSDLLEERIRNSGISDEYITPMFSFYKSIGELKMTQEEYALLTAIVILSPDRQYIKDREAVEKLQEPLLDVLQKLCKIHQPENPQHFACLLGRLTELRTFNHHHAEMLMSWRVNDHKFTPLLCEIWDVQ
T1 sequence (P19793 1-462 partner): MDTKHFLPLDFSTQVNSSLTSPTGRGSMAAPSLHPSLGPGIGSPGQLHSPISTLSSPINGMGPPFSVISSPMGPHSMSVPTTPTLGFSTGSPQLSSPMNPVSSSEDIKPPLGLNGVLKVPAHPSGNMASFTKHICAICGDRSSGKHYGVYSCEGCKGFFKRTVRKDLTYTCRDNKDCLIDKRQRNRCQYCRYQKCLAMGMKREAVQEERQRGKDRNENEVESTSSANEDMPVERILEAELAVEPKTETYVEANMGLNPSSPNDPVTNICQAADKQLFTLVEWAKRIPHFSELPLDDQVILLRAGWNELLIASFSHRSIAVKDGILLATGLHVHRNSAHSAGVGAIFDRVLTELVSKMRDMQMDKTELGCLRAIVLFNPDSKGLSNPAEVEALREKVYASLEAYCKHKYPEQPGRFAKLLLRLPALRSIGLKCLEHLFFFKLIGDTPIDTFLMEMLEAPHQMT
As to the kind of experiment: Full-length FXR:RXR reporter gene assay (BSEP promoter, HeLa, transiently transfected). Conditions: mean±S.E.M., n≥3. The format is cell-based. The method, then: Full‐length FXR:RXR reporter gene assay. HeLa cells were grown in DMEM high glucose supplemented with 10 % FCS, sodium pyruvate (1 mM), penicillin (100 U/mL) and streptomycin (100 μg/mL) at 37 °C and 5 % CO2 and seeded in 96‐well plates 24 h before transfection with a density of 8000 cells per well. 3.5 h before transfection, medium was changed to DMEM high glucose, supplemented with sodium pyruvate (1 mM), penicillin (100 U/mL), streptomycin (100 μg/mL) and 0.5 % charcoal‐stripped FCS. Cells were then transiently transfected with using the calcium phosphate transfection method with pGL3basic‐BSEP[26, 27] (containing a shortened construct of the promotor of the bile salt export protein (BSEP) cloned into the SacI/NheI cleavage site in front of the luciferase gene), pcDNA3‐hFXR[26] and pSG5‐hRXR[38] coding for the full‐length human nuclear receptors FXR and RXRα, and pRL‐SV40 (Promega) for normalization of transfection efficiency and cell growth. 16 h after transfection, medium was changed to DMEM high glucose, supplemented with sodium pyruvate (1 mM), penicillin (100 U/mL), streptomycin (100 μg/mL) and 0.5 % charcoal‐stripped FCS. 24 h after transfection, medium was changed to DMEM without phenol red, supplemented with sodium pyruvate (1 mM), penicillin (100 U/mL), streptomycin (100 μg/mL), L‐glutamine (2 mM) and 0.5 % charcoal‐stripped FCS, now additionally containing 0.1 % DMSO and the respective test compound or 0.1 % DMSO alone as untreated control. Each sample was tested in triplicate wells and each experiment was repeated independently at least three times. Following 24 h incubation with the test compounds, cells were assayed for luciferase activity using Dual‐Glo Luciferase Assay System (Promega) according to the manufacturer's protocol. Luminescence was measured with a Tecan Spark M luminometer (Tecan). Normalization of transfection efficiency and cell growth was done by division of firefly luciferase data by Renilla luciferase data multiplied by 1000 resulting in relative light units (RLU). Fold activation was obtained by dividing the mean RLU of the tested compound at a respective concentration by the mean RLU of untreated control. EC50 and standard error of the mean values were calculated with the mean fold activation values of at least three independent experiments with SigmaPlot 10.0 (Systat Software GmbH, Erkrath, Germany) using a four‐parameter logistic regression.
On the technique in general: A reporter such as luciferase makes a cellular process visible.

As to `O=C(O)c1ccnc(NC(=O)c2ccc(OCCCc3ccccc3)cc2)c1` [compound 19, 2‐(4‐(3‐Phenylpropoxy)benzamido)isonicotinic acid], the “FXR efficacy (maximum FXR activation relative to 3 μM GW4064)” value (3 μM GW4064 = 100 % activation) stood at 21±1%. Moreover, the response (full-length FXR reporter gene assay, BSEP promoter, HeLa) was half-maximal at 460 ± 80 nM (EC50).
